Tests used:
Format in all cases: biochemical
JAK2 = JAK2 (Homo sapiens, UniProt O60674); assay: JAK2 inhibition assay (radioactive enzyme assay, as for JAK3); conditions: average Ki if more than one value determined
Protocol: (§1) Compounds were screened for their ability to inhibit JAK3 using a standard radioactive enzyme assay. 1.5 μL/well of a DMSO stock containing serial dilutions of a compound of the present invention (concentrations ranging from 667 μM to 46 nM) was placed in a 96 well polycarbonate plate. 50 μL per well of kinase buffer (100 mM HEPES (pH 7.4), 10 mM MgCl2, 25 mM NaCl, 1 mM DTT, and 0.01% bovine serum albumin (BSA)) containing 2 μM poly(Glu)4Tyr and 10 μM ATP was also added to the plate. To initiate the reaction, 50 μL kinase buffer containing 2 nM JAK3 enzyme was added. Final ATP concentration was 5 μM [γ-^33P] ATP (200 μCi ^33P ATP/μmol ATP (Perkin Elmer, Cambridge, Mass.). After 20 minutes at room temperature (25° C.), the reaction was stopped by adding 50 μL 20% trichloroacetic acid (TCA)/0.4 mM ATP to each well. The entire content of each well was then transferred to a 96 well glass fiber filter plate using a TomTek Cell Harvester. After washing, 60 μL scintillation fluid was added and ^33P incorporation detected using a Perkin Elmer TopCount. After removing mean background values for all of the data points the data was fit using Prism software to obtain a Ki(app). Inhibition of JAK2 was measured as above except that final poly(Glu)4Tyr concentration was 15 μM and final ATP concentration was 12 μM.

ROCK I (AA 6-553) = target: T1, ROCK I (AA 6-553) (Homo sapiens, UniProt Q13464); assay: ROCK inhibition assay, standard coupled enzyme system ("Enzyme"); conditions: enzyme-linked assay
T1 construct: ROCK I (AA 6-553)
T1 sequence (Q13464 6-553, species assumed): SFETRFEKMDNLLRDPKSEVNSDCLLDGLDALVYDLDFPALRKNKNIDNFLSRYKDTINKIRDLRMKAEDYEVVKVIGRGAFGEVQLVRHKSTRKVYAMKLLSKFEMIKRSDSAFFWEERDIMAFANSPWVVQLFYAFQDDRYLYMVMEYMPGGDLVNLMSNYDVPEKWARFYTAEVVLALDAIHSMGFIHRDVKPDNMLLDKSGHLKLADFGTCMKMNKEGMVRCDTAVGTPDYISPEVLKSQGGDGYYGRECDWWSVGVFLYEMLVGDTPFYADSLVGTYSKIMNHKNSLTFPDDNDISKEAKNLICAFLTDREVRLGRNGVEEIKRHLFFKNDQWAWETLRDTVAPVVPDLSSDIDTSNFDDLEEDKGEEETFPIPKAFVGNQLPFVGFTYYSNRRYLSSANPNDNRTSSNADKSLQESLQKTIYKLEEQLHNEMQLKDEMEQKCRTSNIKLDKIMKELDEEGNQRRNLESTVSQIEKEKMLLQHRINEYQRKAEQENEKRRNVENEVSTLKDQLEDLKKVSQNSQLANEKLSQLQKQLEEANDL
How it was run: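 ROCK I (AA 6-553) at 45 nM and 30 °C with 45 μM ATP and 200 μM peptide, in 100 mM HEPES pH 7.5, 10 mM MgCl2, 25 mM NaCl, 2 mM DTT, 1.5% DMSO. ADP output read by a PK/LDH coupled system: 2.5 mM PEP, 350 μM NADH, 30 μg/ml PK, 10 μg/ml LDH.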

JAK3 = target: T2, JAK3 (Homo sapiens, UniProt P52333); assay: JAK3 inhibition assay (standard radioactive enzyme assay); conditions: average Ki if more than one value determined
T2 sequence (P52333 1-1124): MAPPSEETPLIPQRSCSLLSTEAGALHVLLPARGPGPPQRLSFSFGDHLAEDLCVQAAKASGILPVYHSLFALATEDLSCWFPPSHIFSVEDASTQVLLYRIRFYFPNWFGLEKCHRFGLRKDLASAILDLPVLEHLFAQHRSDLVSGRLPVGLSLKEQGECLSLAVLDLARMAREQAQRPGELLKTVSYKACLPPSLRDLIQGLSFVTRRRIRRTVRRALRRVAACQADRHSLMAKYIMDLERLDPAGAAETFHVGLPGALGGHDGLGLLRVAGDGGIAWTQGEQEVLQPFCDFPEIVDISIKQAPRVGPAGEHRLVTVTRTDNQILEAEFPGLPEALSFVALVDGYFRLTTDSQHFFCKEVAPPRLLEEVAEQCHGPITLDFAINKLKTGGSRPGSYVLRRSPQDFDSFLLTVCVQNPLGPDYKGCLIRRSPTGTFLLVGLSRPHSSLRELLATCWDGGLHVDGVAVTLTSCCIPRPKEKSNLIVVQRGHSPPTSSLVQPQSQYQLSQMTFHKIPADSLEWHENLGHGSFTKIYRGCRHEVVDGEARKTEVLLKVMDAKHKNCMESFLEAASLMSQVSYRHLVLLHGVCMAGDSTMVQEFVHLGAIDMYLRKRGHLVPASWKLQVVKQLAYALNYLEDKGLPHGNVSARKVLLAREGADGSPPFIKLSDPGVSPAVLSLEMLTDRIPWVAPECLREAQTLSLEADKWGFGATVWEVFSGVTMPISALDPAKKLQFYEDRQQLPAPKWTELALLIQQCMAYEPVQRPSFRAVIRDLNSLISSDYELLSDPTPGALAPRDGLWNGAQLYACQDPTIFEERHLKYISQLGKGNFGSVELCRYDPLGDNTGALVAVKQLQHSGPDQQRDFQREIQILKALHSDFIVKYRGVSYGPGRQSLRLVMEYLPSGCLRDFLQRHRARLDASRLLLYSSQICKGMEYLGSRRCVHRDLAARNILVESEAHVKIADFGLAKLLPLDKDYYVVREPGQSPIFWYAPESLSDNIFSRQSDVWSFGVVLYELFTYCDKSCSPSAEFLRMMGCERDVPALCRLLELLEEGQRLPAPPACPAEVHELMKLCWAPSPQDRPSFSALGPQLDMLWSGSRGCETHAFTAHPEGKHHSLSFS
Protocol: as §1

[1] = target: T3, full length Aurora-A (AA 1-403) (Homo sapiens, UniProt O14965); assay: Aurora-A inhibition assay, standard coupled enzyme system; conditions: average Ki if more than one value determined
T3 construct: full length Aurora-A (AA 1-403)
T3 sequence (O14965 1-403): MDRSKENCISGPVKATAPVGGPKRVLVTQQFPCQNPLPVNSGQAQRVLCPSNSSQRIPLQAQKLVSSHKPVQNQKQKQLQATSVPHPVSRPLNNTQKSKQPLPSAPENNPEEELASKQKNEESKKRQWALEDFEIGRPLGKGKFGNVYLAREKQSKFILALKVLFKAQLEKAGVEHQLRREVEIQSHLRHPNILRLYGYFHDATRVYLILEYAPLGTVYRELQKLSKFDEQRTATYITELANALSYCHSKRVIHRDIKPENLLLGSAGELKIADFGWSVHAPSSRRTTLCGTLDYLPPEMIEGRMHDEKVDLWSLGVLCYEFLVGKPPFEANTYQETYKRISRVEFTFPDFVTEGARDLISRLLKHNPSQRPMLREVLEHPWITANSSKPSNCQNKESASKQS

Chain of JAK2 (O60674 whole entry, species assumed): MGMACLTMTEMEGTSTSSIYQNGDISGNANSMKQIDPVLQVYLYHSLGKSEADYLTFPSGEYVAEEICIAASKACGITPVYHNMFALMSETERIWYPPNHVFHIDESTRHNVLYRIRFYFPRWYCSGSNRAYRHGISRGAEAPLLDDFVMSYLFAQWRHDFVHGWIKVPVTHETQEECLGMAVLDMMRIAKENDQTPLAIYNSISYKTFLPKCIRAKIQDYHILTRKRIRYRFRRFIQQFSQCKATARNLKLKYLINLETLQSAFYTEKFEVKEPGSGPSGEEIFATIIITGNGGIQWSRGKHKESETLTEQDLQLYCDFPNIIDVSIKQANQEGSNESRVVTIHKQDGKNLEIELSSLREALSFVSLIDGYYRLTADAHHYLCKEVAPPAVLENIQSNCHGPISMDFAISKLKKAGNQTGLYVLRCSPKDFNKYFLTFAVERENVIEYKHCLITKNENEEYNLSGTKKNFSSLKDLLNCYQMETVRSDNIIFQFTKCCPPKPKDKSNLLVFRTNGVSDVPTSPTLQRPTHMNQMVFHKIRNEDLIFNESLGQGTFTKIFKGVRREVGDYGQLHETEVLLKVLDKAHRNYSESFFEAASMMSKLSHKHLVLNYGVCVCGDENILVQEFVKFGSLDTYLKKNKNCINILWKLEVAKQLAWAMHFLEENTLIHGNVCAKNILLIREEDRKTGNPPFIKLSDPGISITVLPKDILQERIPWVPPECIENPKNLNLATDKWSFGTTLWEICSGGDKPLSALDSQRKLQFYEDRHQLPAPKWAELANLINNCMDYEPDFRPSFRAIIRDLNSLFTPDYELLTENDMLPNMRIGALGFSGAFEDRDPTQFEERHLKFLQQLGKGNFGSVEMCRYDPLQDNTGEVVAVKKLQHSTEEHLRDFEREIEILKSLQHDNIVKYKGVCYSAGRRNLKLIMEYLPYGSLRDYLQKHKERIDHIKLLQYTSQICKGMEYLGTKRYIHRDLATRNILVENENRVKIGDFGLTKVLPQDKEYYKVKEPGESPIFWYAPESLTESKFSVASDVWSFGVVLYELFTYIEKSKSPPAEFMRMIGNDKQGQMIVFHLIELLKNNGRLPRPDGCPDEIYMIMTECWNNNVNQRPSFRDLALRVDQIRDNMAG

Row | Ki (JAK2) | Ki (ROCK I (AA 6-553)) | Ki (JAK3) | Ki [1] | Structure (SMILES)
1 | < 0.5 µM | 0.5 to 5 µM | < 0.5 µM | < 0.5 µM | Cc1cnc2[nH]cc(-c3cccc(NCc4ccccc4)n3)c2c1 [Compound 39]
2 | < 0.5 µM | 0.5 to 5 µM | < 0.5 µM | < 0.5 µM | CC(=O)N1[C@H](C)CN(c2cccc(-c3c[nH]c4ncc(C)cc34)n2)C[C@@H]1C [Compound 41]
3 | < 0.5 µM | 0.5 to 5 µM | < 0.5 µM | < 0.5 µM | O=C(O)c1ccc(-c2c[nH]c3ncc(Cl)cc23)nc1NCc1ccccc1 [Compound 42]
4 | 0.5 to 5 µM | 0.5 to 5 µM | 0.5 to 5 µM | < 0.5 µM | COC(=O)c1ccc(-c2c[nH]c3ncc(Cl)cc23)nc1NCc1ccccc1 [Compound 43]
5 | 0.5 to 5 µM | 0.5 to 5 µM | 0.5 to 5 µM | < 0.5 µM | O=C(O)c1ccc(NCc2ccccc2)nc1-c1c[nH]c2ncc(Cl)cc12 [Compound 44]
6 | < 0.5 µM | 0.5 to 5 µM | < 0.5 µM | < 0.5 µM | COC(=O)c1ccc(NCc2ccccc2)nc1-c1c[nH]c2ncc(Cl)cc12 [Compound 45]
7 | < 0.5 µM | 0.5 to 5 µM | < 0.5 µM | < 0.5 µM | NC(=O)c1ccc(-c2c[nH]c3ncc(Cl)cc23)nc1NCc1ccccc1 [Compound 46]
8 | < 0.5 µM | 0.5 to 5 µM | < 0.5 µM | 0.5 to 5 µM | CC(=O)N1[C@H](C)CN(c2cccc(-c3c[nH]c4ncc(C(=O)O)cc34)n2)C[C@@H]1C [Compound 47]
9 | < 0.5 µM | 0.5 to 5 µM | < 0.5 µM | < 0.5 µM | Fc1cnc2[nH]cc(-c3cccc(NCc4ccccc4)n3)c2c1 [Compound 48]
10 | < 0.5 µM | 0.5 to 5 µM | < 0.5 µM | 0.5 to 5 µM | CC(=O)N1CCCN(c2cccc(-c3c[nH]c4ncc(F)cc34)n2)CC1 [Compound 49]
11 | < 0.5 µM | < 0.5 µM | < 0.5 µM | 0.5 to 5 µM | CC(=O)N1[C@H](C)CN(c2cccc(-c3c[nH]c4ncc(F)cc34)n2)C[C@@H]1C [Compound 50]
12 | > 5 µM | 0.5 to 5 µM | > 5 µM | 0.5 to 5 µM | CC(=O)N1[C@H](C)CN(c2cccc(-c3c[nH]c4ncc(C(=O)N5C[C@@H](C)N[C@@H](C)C5)cc34)n2)C[C@@H]1C [Compound 52]
13 | < 0.5 µM | < 0.5 µM | < 0.5 µM | < 0.5 µM | CC(=O)N1[C@H](C)CN(c2cccc(-c3c[nH]c4ncc(C(=O)OC(C)C)cc34)n2)C[C@@H]1C [Compound 53]
14 | 0.5 to 5 µM | 0.5 to 5 µM | 0.5 to 5 µM | < 0.5 µM | CC(=O)N1[C@H](C)CN(c2cccc(-c3c[nH]c4ncc(C(=O)N5CCCCC5)cc34)n2)C[C@@H]1C [Compound 54]
15 | > 5 µM |  | 0.5 to 5 µM | 0.5 to 5 µM | CC(=O)N1[C@H](C)CN(c2cccc(-c3c[nH]c4ncc(C(=O)N5CCNCC5)cc34)n2)C[C@@H]1C [Compound 56]
16 | < 0.5 µM | 0.5 to 5 µM | < 0.5 µM |  | CC(=O)Nc1cc(-c2c[nH]c3ncc(Cl)cc23)nc(N2C[C@@H](C)N(C(C)=O)[C@@H](C)C2)c1 [Compound 160]
17 | < 0.5 µM | 0.5 to 5 µM | < 0.5 µM |  | CC(=O)N1[C@H](C)CN(c2cccc(-c3c[nH]c4ncc(NC(=O)[C@H]5CCCCN5)cc34)n2)C[C@@H]1C [Compound 171]
18 | < 0.5 µM | < 0.5 µM | < 0.5 µM |  | CC(=O)N1[C@H](C)CN(c2cccc(-c3c[nH]c4ncc(NC(=O)c5ccccc5Cl)cc34)n2)C[C@@H]1C [Compound 173]

Row | Ki (JAK2) | Ki (ROCK I (AA 6-553)) | Ki (JAK3) | Ki [1] | Structure (SMILES)
19 | 0.5 to 5 µM | 0.5 to 5 µM | 0.5 to 5 µM |  | O=C(O)Cc1cccc(-c2c[nH]c3ncc(Cl)cc23)c1 [Compound 178]
20 | < 0.5 µM | 0.5 to 5 µM | < 0.5 µM |  | CCC(C)C(=O)Nc1cnc2[nH]cc(-c3cccc(N4C[C@@H](C)N(C(C)=O)[C@@H](C)C4)n3)c2c1 (some centres unmarked) [Compound 180]
21 | < 0.5 µM | 0.5 to 5 µM | < 0.5 µM |  | Clc1cnc2[nH]cc(-c3ccccc3)c2c1 [Compound 183]
22 | 0.5 to 5 µM | 0.5 to 5 µM | < 0.5 µM |  | Clc1cnc2[nH]cc(-c3ccccn3)c2c1 [Compound 184]
23 | < 0.5 µM |  | < 0.5 µM | < 0.5 µM | Clc1cnc2[nH]cc(-c3cccc(CNc4ccccc4)c3)c2c1 [Compound 186]
24 | < 0.5 µM | 0.5 to 5 µM | < 0.5 µM |  | CC(=O)N1[C@H](C)CN(c2cccc(-c3c[nH]c4ncc(NC(=O)c5ccc(F)cc5)cc34)n2)C[C@@H]1C [Compound 189]
25 | < 0.5 µM | < 0.5 µM | < 0.5 µM |  | CC(=O)N1[C@H](C)CN(c2cccc(-c3c[nH]c4ncc(OCc5ccccc5)cc34)n2)C[C@@H]1C [Compound 193]
26 | < 0.5 µM | 0.5 to 5 µM | < 0.5 µM |  | CC(=O)N1[C@H](C)CN(c2cccc(-c3c[nH]c4ncc(OCCCN(C)C)cc34)n2)C[C@@H]1C [Compound 194]
27 | 0.5 to 5 µM | 0.5 to 5 µM | < 0.5 µM |  | Clc1cnc2[nH]cc(-c3ccc4ccccc4n3)c2c1 [Compound 195]
28 | > 5 µM | 0.5 to 5 µM | 0.5 to 5 µM |  | Cc1cc(C(F)(F)F)cc(-c2c[nH]c3ncc(Cl)cc23)n1 [Compound 196]
29 | 0.5 to 5 µM | 0.5 to 5 µM | < 0.5 µM |  | Cc1cc(-c2c[nH]c3ncc(Cl)cc23)nc2ccccc12 [Compound 197]
30 | > 5 µM | 0.5 to 5 µM | 0.5 to 5 µM |  | Cc1cc(-c2c[nH]c3ncc(Cl)cc23)c2ccccc2n1 [Compound 198]
31 | 0.5 to 5 µM | 0.5 to 5 µM | < 0.5 µM |  | Clc1cnc2[nH]cc(-c3ccc4ccccc4c3)c2c1 [Compound 199]
32 | 0.5 to 5 µM | 0.5 to 5 µM | < 0.5 µM |  | Clc1cnc2[nH]cc(-c3ccc4ncccc4c3)c2c1 [Compound 200]
33 | < 0.5 µM | 0.5 to 5 µM | < 0.5 µM |  | COc1cccc(-c2c[nH]c3ncc(Cl)cc23)n1 [Compound 201]
34 | 0.5 to 5 µM | 0.5 to 5 µM | 0.5 to 5 µM |  | Clc1cnc2[nH]cc(-c3cccc4cccnc34)c2c1 [Compound 202]
35 | < 0.5 µM | 0.5 to 5 µM | < 0.5 µM |  | CC(C)(O)c1cccc(-c2c[nH]c3ncc(Cl)cc23)n1 [Compound 203]

— US8501446B2 (Vertex Pharmaceuticals Incorporated, priority 2004, dated 2013)
